Results on two substances are retold here after paper PMC12002301, “Discovery and functional characterization of a bombesin-type neuropeptide signaling system in an invertebrate” (Proceedings of the National Academy of Sciences of the …, 2025).

For the assay, the system named is ArBNR3. Kind of assay: Luminescence (GFP-aequorin Ca2+) assay, CHO-K1 cells coexpressing ArBNR3 and Gqs5. Format: cell-based, Asterias rubens. The conditions noted are these: ArBNR3, words; up to 10^-5 M. How it is done:
Having investigated relationships of eleven A. rubens BN-type receptor candidates (ArBNR1-11) with BN-type, ET-type, and CCHa/EP-type receptors in other taxa, ArBNR1 was identified as the best candidate and therefore this was selected for experimental testing. However, two other receptors (ArBNR2 and ArBNR3) were also tested. The methods employed for functional characterization of A. rubens neuropeptide receptors have been described previously ([57]) and a description of the methods employed in this study is included in SI Appendix, SI Methods. […]
Functional characterization of A. rubens BN-type receptors
Two cDNAs encoding ArBNR1 and ArBNR3 were cloned from A. rubens radial nerve cord cDNA using Q5 polymerase (NEB, Cat. no. M0491S) and PCR with specific primers (SI Appendix, Table S5). To facilitate expression of the cloned receptors, the forward primers were designed to contain a partial Kozak consensus sequence (ACC) before the ATG start codon. Then, PCR products were inserted into the mammalian expression vector pcDNA 3.1(+) (Invitrogen, Cat. no.
V79020) that had been cut in advance with the restriction enzyme EcoRV (NEB, Cat. no. […] Successful ligation and the direction of the insert was determined by restriction enzyme digestion and sequencing (TubeSeq service; Eurofins Genomics). […]
identical to residues 18 - 270 of the protein XP_033631283.1, which was determined from genome […]

Regarding “EPMPSSLALYIANLSP-NH2 [ArBNP65-81, C-terminally amidated 16-residue peptide predicted to be derived from residues 65 to 81 of ArBNP]”, the peptide-induced luminescence entry is listed as “did not trigger luminescence”.
Regarding “NYNRVFGPTY-NH2 [ArBN5-14, C-terminally amidated 10-residue peptide corresponding to the C-terminal region of ArBN]”, the peptide-induced luminescence result is given as “did not trigger luminescence”.
